Legend:
DHX33 protein = target: T1, DHX33 protein (Mus musculus, UniProt Q80VY9); assay: Inhibition of the helicase activity of DHX33 protein in vitro; assay type: biochemical; conditions: recombinant DHX33 protein, compound 1-1000 nM, 37° C., 60 minutes; read-out: IC50 (inhibitory effects of the compounds on the helicase activity of DHX33 protein)
T1 construct: purified full-length DHX33 protein; made in house; host or cells: E. coli BL-21pLysS (DE3)
T1 sequence (Q80VY9 1-698): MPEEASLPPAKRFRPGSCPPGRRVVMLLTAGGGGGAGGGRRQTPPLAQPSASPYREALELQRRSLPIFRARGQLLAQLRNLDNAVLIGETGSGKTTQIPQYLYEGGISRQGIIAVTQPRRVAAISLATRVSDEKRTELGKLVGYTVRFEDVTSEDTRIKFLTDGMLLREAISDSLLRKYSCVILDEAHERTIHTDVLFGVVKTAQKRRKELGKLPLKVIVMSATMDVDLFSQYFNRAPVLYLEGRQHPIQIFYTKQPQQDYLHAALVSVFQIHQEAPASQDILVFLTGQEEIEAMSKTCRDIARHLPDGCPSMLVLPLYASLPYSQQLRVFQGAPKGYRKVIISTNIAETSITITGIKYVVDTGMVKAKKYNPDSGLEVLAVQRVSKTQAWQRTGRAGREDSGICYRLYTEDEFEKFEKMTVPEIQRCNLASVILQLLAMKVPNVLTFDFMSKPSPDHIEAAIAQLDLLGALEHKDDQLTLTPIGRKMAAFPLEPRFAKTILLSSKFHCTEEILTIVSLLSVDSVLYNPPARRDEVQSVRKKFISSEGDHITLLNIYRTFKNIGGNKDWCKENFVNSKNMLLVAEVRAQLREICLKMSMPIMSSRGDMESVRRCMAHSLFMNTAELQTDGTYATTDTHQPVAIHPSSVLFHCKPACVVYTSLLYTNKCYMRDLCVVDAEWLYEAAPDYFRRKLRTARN
Procedure: Biochemistry. 2019:58 (4):250-8. RNA helicase gene (mouse DHX33 gene) was cloned into a pET32M-3C vector (between BamH I/Not I restriction sites). Afterward, the plasmid was transformed into BL-21pLysS (DE3) E. coli. 0.5 mM isopropyl 1-thio-βp-D-galactopyranoside (IPTG) was added, and the expression of the recombinant protein was induced at 16° C. for 16 hours. Cells were allowed to precipitate and were resuspended in a cell lysis buffer [50 mM Tris-HCl (pH7.2), 150 mM NaCl, 1% Triton X-100, and 50 mM imidazole supplemented with a protease inhibitor]. Thereafter, cells were subjected to ultrasonic treatment and centrifuged at a rotation speed of 13000 rpm for 25 minutes. The supernatant was incubated with the nickel-nitrilotriacetic acid beads equilibrated in Tris buffer, followed by sufficient washing. Thereafter, the purified protein was eluted with a solution of 300 mM imidazole in Tris buffer, and was then subjected to dialysis against an imidazole-free Tris buffer at 4° C. overnight.
The components involved in the reaction for testing the helicase activity were added to a 96-well opaque white plate. The method was outlined as follows. The 96-well plate was coated with neutravidin at a final concentration of 10 μg/mL (100 μl/well) overnight at 4° C. Afterwards, the neutravidin-coated plate was blocked with 100 μL of 0.1% (w/v) BSA (dissolved in normal PBS) at 22° C. for 2 hours. After washing, a DNA duplex (2.5 ng) that was resulted from the annealing of two single-stranded DNA oligonucleotides (the sequence of one single strand was biotin-labeled 5′-[…]-3′; and the sequence of the other single strand was DIG-labeled 5′-[…]-3′) [the annealing reaction was carried out in PBS (pH 7.0) containing 1M NaCl] was added, and the resulting mixture was incubated at 22° C. for 4 hours. After the addition of 90 μL of the reaction mixture, the helicase reaction was initiated [0.25 pig of purified full-length DHX33 protein, dissolved in 25 mM 4-MOPS (pH 7.0), 5 mM ATP 2 mM DTT, 3 mM MnCl2 and 100 μg/mL BSA]. The reaction was conducted at 37° C. for 60 minutes. After being washed, each well was incubated with a blocking solution [10% (w/v) BSA in 0.1 M maleic acid and 0.15 M NaCl (pH 7.5)] for 30 minutes, and was then incubated with 20 μL of antibody solution (anti-DIG-AP, Roche, in blocking buffer) for 30 minutes. After being washed with 100 μL of detection buffer [0.1 M Tris-HCl and 0.1 M NaCl (pH 9.5)], each well was added with 1 μL of chemiluminescent substrate (CSPD-0.25 mM), and the plate was incubated at 17° C. for 5 minutes. Afterwards, the plate was patted dry and incubated at 37° C. for 30 minutes. The remaining DIG-AP marker control in each well was counted for 10 minutes by a luminescence multi-well plate reader (Enspire, PerkinElmer). Higher reading indicated weaker helicase activity.
Positive control and negative controls were set for this acticity assay. Among them, one negative control group, which differed from the experimental group only in that the former was not added with ATP (other conditions were the same as the experimental group), was used for the comparison with the experimental group; another negative control group, which differed from the experimental group only in that the former was not added with DHX33 protein (other conditions were the same as the experimental group), was used for the comparison with the experimental group. The positive control group was set for the comparison with the wild-type DHX33 protein (standard substance).
Biochemistry. 2019:58 (4):250-8.
Compounds having a series of concentration (the concentrations were set at 1 nM, 5 nM, 10 nM, 20 nM, 50 nM, 100 nM, 250 nM, 500 nM, and 1000 nM) were used to conduct the helicase activity assay of […] protein in vitro. The half-maximal inhibitory concentrations of the compounds of the present disclosure on the helicase activity of […] protein were as shown in Table 1.

U251-MG cells = assay: Half-maximal cell-inhibitory concentration on U251-MG cells (CCK-8); assay type: cell-based; conditions: Homo sapiens, U-251, U251-MG cells (DHX33-overexpressing cancer cell strain), 48 hours, read-out: IC50 (half-maximal inhibitory concentrations of compounds on U251-MG cells)
Procedure: U251-MG cells were purchased from the cell bank of the Chinese Academy of Sciences. Cells were cultured in MEM medium containing 10% fetal bovine serum (FBS), 2 mM L-glutammie, streptomycmn and penicillin. The growth conditions were set as follows: a humidified cell incubator (37° C., 5% CO2). Cells were passaged every 3 days and were discarded after 10 passages.
U251-MG cells (a […]-overexpressing cancer cell strain) were seeded on a 96-well plate at 1×10^4 cells/100 μl/well. After the cells were completely attached, the compounds were added to the cell culture medium at a concentration of 5 nM, 10 nM, 25 nM, 50 nM, 100 nM, […], 500 nM, 1000 nM, 2000 nM, […] or 20 μM, and the resulting mixture was uniformly mixed with a multichannel pipette. After the cells were incubated with the compound for 48 hours, CCK-8 reagent (Yeasen Biotechnology (Shanghai) Co., Ltd.) was added to the medium in the 96-well plate in accordance with the standard procedure. After being incubated for 2 hours, the plate was read with a microplate reader (OD=450 nm). The experiment was repeated three times, the inhibition curve of the compound at different concentrations was plotted, and the half-maximal inhibitory concentration (IC50) of the compound was calculated.

IC50 (DHX33 protein) [µM] | IC50 (U251-MG cells) [µM] | Compound
< 0.02 | < 0.1 | COc1cc2nc(/C(C#N)=C/c3cc(C)n(-c4oc(C)c(C)c4C#N)c3C)[nH]c2cn1 [AB24254, (E)-2-(3-(2-cyano-2-(6-methoxy-3H-imidazo[4,5-c]pyridin-2-yl)vinyl)-2,5-dimethyl-1H-pyrrol-1-yl)-4,5-dimethylfuran-3-carbonitrile]
0.1 to 0.4 |  | COc1ccc2c(c1)[nH]c1cc(-c3cc(C)n(-c4sc(C)cc4C#N)c3C)ccc12 [AB24350, 2-(3-(7-methoxy-9H-carbazol-2-yl)-2,5-dimethyl-1H-pyrrol-1-yl)-5-methylthiophene-3-carbonitrile]
0.1 to 0.4 | 1 to 5 | Cc1oc(-n2c(C)cc(/C=C(\C#N)c3nc4ccc(C(F)(F)F)cc4[nH]3)c2C)c(C#N)c1C [AB24243, (E)-2-(3-(2-cyano-2-(6-(trifluoromethyl)-1H-benzo[d]imidazol-2-yl)vinyl)-2,5-dimethyl-1H-pyrrol-1-yl)-4,5-dimethylfuran-3-carbonitrile]
0.02 to 0.1 | 1 to 5 | COC(=O)c1cc(C)c(-n2c(C)cc(/C=C(\C#N)c3nc4cc(OC)ncc4[nH]3)c2C)s1 [AB24335]
0.1 to 0.4 | 1 to 5 | COC(=O)c1c(-n2c(C)cc(/C=C(\C#N)c3nc4ccc(OC)cc4[nH]3)c2C)sc(C)c1C [AB24322, methyl (E)-2-(3-(2-cyano-2-(6-methoxy-1H-benzo[d]imidazol-2-yl)vinyl)-2,5-dimethyl-1H-pyrrol-1-yl)-4,5-dimethylthiophene-3-carboxylate]
0.02 to 0.1 | 0.1 to 1 | COc1ccc2nc(/C(C#N)=C/c3cc(C)n(-c4oc(C)c(C)c4C#N)c3C)[nH]c2c1 [AB24202, (E)-2-(3-(2-cyano-2-(6-methoxy-1H-benzo[d]imidazol-2-yl)vinyl)-2,5-dimethyl-1H-pyrrol-1-yl)-4,5-dimethylfuran-3-carbonitrile]
< 0.02 | < 0.1 | COc1cc2nc(/C(C#N)=C/c3cc(C)n(Cc4cccs4)c3C)[nH]c2cn1 [AB24399, (E)-3-(2,5-dimethyl-1-(thiophen-2-ylmethyl)-1H-pyrrol-3-yl)-2-(6-methoxy-3H-imidazo[4,5-c]pyridin-2-yl)acrylonitrile]
0.1 to 0.4 | 1 to 5 | Cc1oc(-n2c(C)cc(/C=C(\C#N)c3nc4ccc(F)cc4[nH]3)c2C)c(C#N)c1C [AB24205]
0.02 to 0.1 | 1 to 5 | COc1ccn2c(c1)nc1cc(-c3cc(C)n(-c4sc(C)cc4C#N)c3C)ccc12 [AB24379, 2-(3-(3-methoxybenzo[4,5]imidazo[1,2-a]pyridin-7-yl)-2,5-dimethyl-1H-pyrrol-1-yl)-5-methylthiophene-3-carbonitrile]
0.4 to 1 | 5 to 20 | Cc1oc(-n2c(C)cc(/C=C(\C#N)c3nc4ccccc4[nH]3)c2C)c(C#N)c1C [Compound as control, reference compound]
0.02 to 0.1 | 0.1 to 1 | Cc1cc(C#N)c(-n2c(C)cc(/C=C(\C#N)c3nc4ccccc4[nH]3)c2C)s1 [AB24270, (E)-2-(3-(2-(1H-benzo[d]imidazol-2-yl)-2-cyanovinyl)-2,5-dimethyl-1H-pyrrol-1-yl)-5-methylthiophene-3-carbonitrile]
0.4 to 1 | 5 to 20 | COc1cc2nc(/C(C#N)=C/c3cnc(-c4ccccc4)n3C)[nH]c2cn1 [AB29511, (E)-2-(6-methoxy-3H-imidazo[4,5-c]pyridin-2-yl)-3-(1-methyl-2-phenyl-1H-imidazol-5-yl)acrylonitrile]
< 0.02 | < 0.1 | COc1ccc2nc(NC(=O)c3cc(C)n(-c4sc(C)cc4C#N)c3C)[nH]c2c1 [AB24386, 1-(3-cyano-5-methylthiophen-2-yl)-N-(6-methoxy-1H-benzo[d]imidazol-2-yl)-2,5-dimethyl-1H-pyrrole-3-carboxamide]
0.02 to 0.1 | 0.1 to 1 | CCOC(=O)c1nc(C)sc1-n1c(C)cc(/C=C(\C#N)c2nc3cc(OC)ncc3[nH]2)c1C [AB24314, ethyl (E)-5-(3-(2-cyano-2-(6-methoxy-3H-imidazo[4,5-c]pyridin-2-yl)vinyl)-2,5-dimethyl-1H-pyrrol-1-yl)-2-methylthiazole-4-carboxylate]
0.1 to 0.4 | 1 to 5 | Cc1cc(/C=C(\C#N)c2nc3ccccc3[nH]2)c(C)n1-c1ccncc1 [AB24259]
< 0.02 | 0.1 to 1 | COc1ccc2nc(/C(C#N)=C/c3cc(C)n(-c4sc(C)cc4C#N)c3C)[nH]c2c1 [AB24321]
 | 0.1 to 1 | COc1cnc2[nH]c(/C(C#N)=C/c3cc(C)n(-c4sc(C)c(C)c4C#N)c3C)nc2c1 [AB24301, (E)-2-(3-(2-cyano-2-(6-methoxy-3H-imidazo[4,5-b]pyridin-2-yl)vinyl)-2,5-dimethyl-1H-pyrrol-1-yl)-4,5-dimethylthiophene-3-carbonitrile]
 | 5 to 20 | Cc1nn(-c2ccccc2)c(C)c1/C=C(\C#N)c1nc2ccccc2[nH]1 [AB24284, (E)-2-(1H-benzo[d]imidazol-2-yl)-3-(3,5-dimethyl-1-phenyl-1H-pyrazol-4-yl)acrylonitrile]
 | 0.1 to 1 | COc1cc2nc(/C(C#N)=C/c3cnn(-c4sc(C)cc4C#N)c3C)[nH]c2cn1 [AB24334, (E)-2-(4-(2-cyano-2-(6-methoxy-3H-imidazo[4,5-c]pyridin-2-yl)vinyl)-5-methyl-1H-pyrazol-1-yl)-5-methylthiophene-3-carbonitrile]

Reference: US20230146233A1, “A CLASS OF POLYCYCLIC COMPOUNDS INHIBITING RNA HELICASE DHX33 AND THE APPLICATION THEREOF” (Shenzhen KeYe Life Technologies, Co., Ltd, priority 2020, published 2023)
